US20210254272A1, “TEXTILES HAVING ANTIMICROBIAL PROPERTIES” (Livinguard AG, priority 2015, published 2021)

System: E. coli (ATCC 25922)
Test: AATCC Test Method 100-2012 antibacterial activity of the treated textile, after 25 washes and 12 abrasion cycles, contact time 60 minutes
Format: cell-based
Details: for Log reduction of antimicrobial performance: 1% o.w.f; for Log reduction of antimicrobial performance in 100 GSM Polyester fabric / Log reduction of antimicrobial performance in 100 GSM cotton fabric / Log reduction of antimicrobial performance in 300 GSM Polyester fabric / Log reduction of antimicrobial performance in 300 GSM cotton fabric / Performance Test-Log reduction of antimicrobial performance: 2 min; for Performance Test-Log reduction of antimicrobial performance: pad process, single agent 5 gm/lit
Method: The antibacterial activity of the textile was tested in accordance with AATCC Test Method 100-2012. Prior to the test, the fabric was cut into coupons of 2×4 inches and washed separately 25 times, and exposed to 12 abrasion cycles, as per US EPA protocol 90072PA4 (described further below). The tests were made against E. coli (ATCC 25922). Contact time was 60 minutes, after inoculating with 10^8 CFU per coupon.

[1] = exhaust 80° C., 60 min, curing 180° C., dosage 0.1% o.w.f
[2] = exhaust 80° C., 60 min, curing 180° C., dosage 0.2% o.w.f
[3] = exhaust 80° C., 60 min, curing 180° C., dosage 0.5% o.w.f
[4] = exhaust 80° C., 60 min, curing 180° C., dosage 0.8% o.w.f
[5] = exhaust 80° C., 60 min, curing 180° C., dosage 1.0% o.w.f

`CCCCCCCCCCCCCCCCCC[N+](C)(C)CCC[Si](OC)(OC)OC` [Organosilane, dimethyloctadecyl[3-(trimethoxysilyl)propyl] ammonium chloride] was tested, and the “Log reduction of antimicrobial performance of each active ingredient” value (from here on “Log reduction … of each active ingredient”) (exhaust 60° C., solution dosage 1% o.w.f, process time 60 min) was 1.5 Log, the “Log reduction … of each active ingredient” value (exhaust 60° C., solution dosage 1% o.w.f, process time 90 min) was 1.7 Log and the “Log reduction … of each active ingredient” value (exhaust 60° C., solution dosage 1% o.w.f, process time 120 min) was 1.8 Log. The “Log reduction … of each active ingredient” value (exhaust 60° C., solution dosage 1% o.w.f, process time 180 min) was 1.8 Log, the “Log reduction … of each active ingredient” value (exhaust 60° C., solution dosage 1% o.w.f, process time 240 min) was 1.73 Log and the “Log reduction of antimicrobial performance” value (exhaust 80° C., 60 min, curing 170° C., curing dwell time 0.5 min) was 0.3 Log. For the same molecule, the “Log reduction of antimicrobial performance” value (exhaust 80° C., 60 min, curing 170° C., curing dwell time 1.0 min) was 0.5 Log, the “Log reduction of antimicrobial performance” value (exhaust 80° C., 60 min, curing 170° C., curing dwell time 1.5 min) was 0.6 Log and the “Log reduction of antimicrobial performance” value (exhaust 80° C., 60 min, curing 170° C., curing dwell time 2.0 min) was 1.2 Log. The “Log reduction of antimicrobial performance” value (exhaust 80° C., 60 min, curing 170° C., curing dwell time 2.5 min) was 1.2 Log, the “Log reduction of antimicrobial performance” value (exhaust 80° C., 60 min, curing 170° C., curing dwell time 3.0 min) was 0.75 Log and the “Log reduction of antimicrobial performance” value (exhaust 80° C., 60 min, curing 180° C., curing dwell time 0.5 min) was 1.5 Log. The “Log reduction of antimicrobial performance” value (exhaust 80° C., 60 min, curing 180° C., curing dwell time 1.0 min) was 1.7 Log, the “Log reduction of antimicrobial performance” value (exhaust 80° C., 60 min, curing 180° C., curing dwell time 1.5 min) was 1.8 Log and the “Log reduction of antimicrobial performance” value (exhaust 80° C., 60 min, curing 180° C., curing dwell time 2.0 min) was 3.9 Log. For the same molecule, the “Log reduction of antimicrobial performance” value (exhaust 80° C., 60 min, curing 180° C., curing dwell time 2.5 min) was 3.8 Log, the “Log reduction of antimicrobial performance” value (exhaust 80° C., 60 min, curing 180° C., curing dwell time 3.0 min) was 3.7 Log and the “Log reduction of antimicrobial performance” value (exhaust 80° C., 60 min, curing 190° C., curing dwell time 0.5 min) was 0.6 Log. The “Log reduction of antimicrobial performance” value (exhaust 80° C., 60 min, curing 190° C., curing dwell time 1.0 min) was 1.1 Log, the “Log reduction of antimicrobial performance” value (exhaust 80° C., 60 min, curing 190° C., curing dwell time 1.5 min) was 1.5 Log and the “Log reduction of antimicrobial performance” value (exhaust 80° C., 60 min, curing 190° C., curing dwell time 2.0 min) was 2.55 Log. For the same molecule, the “Log reduction of antimicrobial performance” value (exhaust 80° C., 60 min, curing 190° C., curing dwell time 2.5 min) was 2.46 Log, the “Log reduction of antimicrobial performance” value (exhaust 80° C., 60 min, curing 190° C., curing dwell time 3.0 min) was 1.2 Log and the “Log reduction of antimicrobial performance” value (exhaust 80° C., 60 min, curing temperature 100 ° C.) was 0.17 Log. The “Log reduction of antimicrobial performance” value (exhaust 80° C., 60 min, curing temperature 120 ° C.) was 0.56 Log, the “Log reduction of antimicrobial performance” value (exhaust 80° C., 60 min, curing temperature 140 ° C.) was 0.97 Log and the “Log reduction of antimicrobial performance” value (exhaust 80° C., 60 min, curing temperature 160 ° C.) was 1.11 Log. The “Log reduction of antimicrobial performance” value (exhaust 80° C., 60 min, curing temperature 165 ° C.) was 1.16 Log, the “Log reduction of antimicrobial performance” value (exhaust 80° C., 60 min, curing temperature 170 ° C.) was 1.26 Log and the “Log reduction of antimicrobial performance” value (exhaust 80° C., 60 min, curing temperature 175 ° C.) was 2.16 Log. The “Log reduction of antimicrobial performance” value (exhaust 80° C., 60 min, curing temperature 180 ° C.) was 2.56 Log, the “Log reduction of antimicrobial performance” value (exhaust 80° C., 60 min, curing temperature 185 ° C.) was 2.59 Log and the “Log reduction of antimicrobial performance” value (exhaust 80° C., 60 min, curing temperature 190 ° C.) was 2.61 Log. For the same molecule, the “Log reduction of antimicrobial performance” value (exhaust 80° C., 60 min, curing temperature 195 ° C.) was 2.63 Log, the “Log reduction of antimicrobial performance in 100 GSM Polyester fabric” value (“Log reduction … in 100 GSM Polyester fabric” below) [1] was 0.73 Log and the “Log reduction of antimicrobial performance in 100 GSM cotton fabric” value (“Log reduction … in 100 GSM cotton fabric” for short) [1] was 0.81 Log. The “Log reduction of antimicrobial performance in 300 GSM Polyester fabric” value (shortened to “Log reduction … in 300 GSM Polyester fabric”) [1] was 0.75 Log, the “Log reduction of antimicrobial performance in 300 GSM cotton fabric” value (shortened to “Log reduction … in 300 GSM cotton fabric”) [1] was 0.82 Log and the “Log reduction … in 100 GSM Polyester fabric” value [2] was 1.67 Log. For the same molecule, the “Log reduction … in 100 GSM cotton fabric” value [2] was 1.67 Log, the “Log reduction … in 300 GSM Polyester fabric” value [2] was 1.65 Log and the “Log reduction … in 300 GSM cotton fabric” value [2] was 1.68 Log. The “Log reduction … in 100 GSM Polyester fabric” value [3] was 1.79 Log, the “Log reduction … in 100 GSM cotton fabric” value [3] was 1.83 Log and the “Log reduction … in 300 GSM Polyester fabric” value [3] was 1.80 Log. For the same molecule, the “Log reduction … in 300 GSM cotton fabric” value [3] was 1.83 Log, the “Log reduction … in 100 GSM Polyester fabric” value [4] was 2.19 Log and the “Log reduction … in 100 GSM cotton fabric” value [4] was 2.17 Log. The “Log reduction … in 300 GSM Polyester fabric” value [4] was 2.20 Log, the “Log reduction … in 300 GSM cotton fabric” value [4] was 2.18 Log and the “Log reduction … in 100 GSM Polyester fabric” value [5] was 2.58 Log. For the same molecule, the “Log reduction … in 100 GSM cotton fabric” value [5] was 2.56 Log, the “Log reduction … in 300 GSM Polyester fabric” value [5] was 2.58 Log and the “Log reduction … in 300 GSM cotton fabric” value [5] was 2.57 Log. For the same molecule, the “Log reduction … of each active ingredient” value (exhaust 80° C., 60 min, dosage 1% o.w.f (test up to 5% o.w.f)) was 2.38 Log, the “Log reduction … of each active ingredient” value (exhaust 80° C., 60 min, dosage 2% o.w.f) was 2.38 Log and the “Log reduction … of each active ingredient” value (exhaust 80° C., 60 min, dosage 3% o.w.f) was 2.41 Log. For the same molecule, the “Log reduction … of each active ingredient” value (exhaust 80° C., 60 min, dosage 4% o.w.f) was 2.42 Log, the “Log reduction … of each active ingredient” value (exhaust 80° C., 60 min, dosage 5% o.w.f) was 2.43 Log and the “Log reduction … of each active ingredient” value (exhaust 80 ° C., solution dosage 1% o.w.f, process time 10 min) was 0.78 Log. For the same molecule, the “Log reduction … of each active ingredient” value (exhaust 80 ° C., solution dosage 1% o.w.f, process time 20 min) was 1.11 Log, the “Log reduction … of each active ingredient” value (exhaust 80 ° C., solution dosage 1% o.w.f, process time 30 min) was 1.41 Log and the “Log reduction … of each active ingredient” value (exhaust 80 ° C., solution dosage 1% o.w.f, process time 40 min) was 1.84 Log. The “Log reduction … of each active ingredient” value (exhaust 80 ° C., solution dosage 1% o.w.f, process time 50 min) was 2.38 Log, the “Log reduction … of each active ingredient” value (exhaust 80 ° C., solution dosage 1% o.w.f, process time 60 min) was 2.56 Log and the “Log reduction … of each active ingredient” value (exhaust 80 ° C., solution dosage 1% o.w.f, process time 70 min) was 2.58 Log. The “Log reduction … of each active ingredient” value (exhaust 80 ° C., solution dosage 1% o.w.f, process time 80 min) was 2.61 Log, the “Log reduction … of each active ingredient” value (exhaust 80 ° C., solution dosage 1% o.w.f, process time 90 min) was 2.62 Log and the “Performance Test-Log reduction of antimicrobial performance” value (“Performance Test-Log reduction” below) (curing 120° C.) was 0.05 Log. The “Performance Test-Log reduction” value (curing 140° C.) was 0.17 Log, the “Performance Test-Log reduction” value (curing 150° C.) was 0.27 Log and the “Performance Test-Log reduction” value (curing 160° C.) was 0.57 Log.
